Laboratory results from patent publication US20070287630A1, “Moisturizing agent with nutrients” (DriWater, Inc., priority 2006, published 2007).

Conditions: acetic acid acting as a preservative in the gel

CC(=O)O [acetic acid]
effect on gel degradation in soil: slow gel degradion in soil
